Experiments:
[1] = system: SUDHL6 subcutaneous xenografts; assay: IKE efficacy study, tumor volume; format: in vivo, NCG mice; details: starting from day 9 of treatment
Method: IKE was dissolved in 5% DMSO/95% HBSS at pH 4 to create a 4 mg/mL solution. 5% DMSO/95% HBSS at pH 4 was used as vehicle 1. IKE PEG-PLGA nanoparticles and unfunctionalized PEG-PLGA nanoparticles (without IKE loading) (vehicle 2) prepared with a NanoAssemblr were dialyzed with deionized water overnight, the water was changed at least twice. Dialyzed IKE-PEG-PLGA nanoparticles and unfunctional PEG-PLGA nanoparticles were concentrated by Amicon Ultra-15 Centrifugal Filter Units to create a solution with 80 mg/mL PEG-PLGA nanoparticles. All above solutions were sterilized by filter through a 0.2 μm syringe filter.
NCG mice, 6-weeks old, were injected with 10 million SUDHLO-6 cells subcutaneously. […] Tumor volume was measured daily with electronic caliper and calculated using the formula: 0.5×length×width^2. […] Tumor volume change was analyzed in Prism using one-way ANOVA. Tumor tissues were analyzed as described in the RT-qPCR, immunofluorescence, TBARS, and lipidomics sections below.
We investigated the efficacy of IKE in vivo in male NCG mice bearing SUDHL6 subcutaneous xenografts. […] During the experimental period, mouse weight and tumor volume were measured daily to determine IKE's antitumor effect and possible toxicity. Tumor growth was calculated as the fold change relative to original tumor volume on day 0 before the first dose (FIG. 4C). […]

[2] = system: SUDHL6 xenograft tumor tissue; assay: Immunofluorescence on paraffin-embedded tumor sections after one IKE dose; format: in vivo, NCG mice; details: 4 h after one dose of IKE
Method: NCG mice 6-weeks of age were injected with 10 million SUDHL-6 cells subcutaneously. Visible tumors appeared after 2 weeks. Tumor size was measured by electronic caliper every 2 days and calculated using the formula: 0.5×length×width^2. After another 2 weeks, mice were randomly separated into group of 3 mice per cage with roughly tumor size (1200 mm^3). Mice were dosed at 50 mg/kg IKE, 22 mg/kg IKE, 22 mg/kg IKE PEG-PLGA nanoparticles (equal to 600 mg/kg PEG-PLGA) using IP at one time and samples were collected at 0, 1, 2, 3, 4, 6, and 24 h with three mice per time point. Mice were dosed with Vehicle 1 and Vehicle 2 (600 mg/kg PEG-PLGA) by IP and samples were collected at 24 h. Mice were euthanized using a CO2 gas chamber before xenograft dissection and cardio puncture. Plasma samples were collected and analyzed as described above. […] After drying, the samples were resuspended in 100 μL of methanol and analyzed on the LC-MS with each sample analyzed twice. […] The concentration of IKE in the sample was determined by comparison against a standard curve of IKE in the range of 25 to 2,500 ng/mL. […] Pharmacokinetics parameters of IKE were assessed using Prism fitted with Lognormal of one phase exponential decay. […]
Tumor tissue was fixed in 4% paraformaldehyde (PFA) for 24 h at 4° C. followed by washing three times with PBS. […] Then the above steps were followed for staining and quantification.

SUDHL6 cells = assay: Reduced glutathione measurement in cell culture (Fluorometric-Green); format: cell-based; details: Homo sapiens, SU-DHL-6, 24 hours, average of three experiments, read-out: IC50 of GSH depletion
Method: 2.4 million cells were incubated with DMSO, IKE, or β-mercaptoethanol (β-Me) at a density of 0.2 million cells/mL for 24 h. Cells were collected and washed with cold PBS once. Cell number was counted by Vi-Cell. Cells were resuspended in ice cold RIPA buffer (Thermo Fisher Scientific, 89900) with 100 μL/one million cells. Samples were centrifuged for 15 min at 4° C. at 17,000×g. The resulting supernatant was deproteinized using a trichloroacetic acid and sodium bicarbonate solution and kept on ice. The sample was diluted with assay buffer provided in GSH/GSSG Ratio Detection Assay Kit (Abcam, ab13881) ten-fold. Reduced glutathione (GSH) levels were determined using Fluorometric-Green provided in the kit following the manufacture's protocol. 384-well (Corning) low volume black flat bottom polystyrene non-treated microplates 1230F99 were used in this experiment.

CC(C)Oc1ccc(C(=O)Cn2ccnc2)cc1-n1c(CN2CCN(C(=O)COc3ccc(Cl)cc3)CC2)nc2ccccc2c1=O [IKE, Imidazole ketone erastin]
tumor growth (tumor volume fold change vs day 0) ([1]; 23 mg/kg i.p. once daily): significant decrease in tumor growth
tumor growth (tumor volume fold change vs day 0) ([1]; 40 mg/kg i.p. once daily): significant decrease in tumor growth
increase of 8-OHdG (fluorescence intensity) relative to vehicle [2]: 1.5 fold
increase of dihydropyridine-MDA-lysine adducts (fluorescence intensity) relative to vehicle [2]: 1.6 fold
IC50 (SUDHL6 cells): 34 nM
